The NIST ThermoML archive (doi:10.1021/je0502905)
± gives the expanded uncertainty stated by the source.

Experiments:
[1] = refractive index (Na D-line) (dimensionless); settings: 293.15 K; 101.33 kPa; Liquid; Standard Abbe refractometry
[2] = Liquid; for mass density: 293.15 K, 101.33 kPa

Row | refractive index [1] | mass density [2] [kg/m3] | vapor or sublimation pressure ([2]; 359.51 K) [kPa] | vapor or sublimation pressure ([2]; 379.52 K) [kPa] | vapor or sublimation pressure ([2]; 392.57 K) [kPa] | vapor or sublimation pressure ([2]; 400.69 K) [kPa] | vapor or sublimation pressure ([2]; 379.88 K) [kPa] | vapor or sublimation pressure ([2]; 401.28 K) [kPa] | vapor or sublimation pressure ([2]; 415.26 K) [kPa] | vapor or sublimation pressure ([2]; 423.97 K) [kPa] | vapor or sublimation pressure ([2]; 375.63 K) [kPa] | vapor or sublimation pressure ([2]; 392.7 K) [kPa] | vapor or sublimation pressure ([2]; 403.8 K) [kPa] | vapor or sublimation pressure ([2]; 410.79 K) [kPa] | SMILES
1 | 1.4008 ± 0.0007 | 811.2 ± 0.8 | 26.66 ± 0.27 | 53.33 ± 0.32 | 79.99 ± 0.45 | 101.32 ± 0.53 |  |  |  |  |  |  |  |  | CCCCC(C)=O [2-hexanone]
2 | 1.4055 ± 0.0007 | 717.6 ± 0.7 |  |  |  |  | 26.66 ± 0.25 | 53.33 ± 0.3 | 79.99 ± 0.42 | 101.32 ± 0.49 |  |  |  |  | CCCCCCCCC [nonane]
3 | 1.4098 ± 0.0007 | 814.5 ± 0.8 |  |  |  |  |  |  |  |  | 26.66 ± 0.31 | 53.33 ± 0.37 | 79.99 ± 0.53 | 101.32 ± 0.61 | CCCCCO [pentan-1-ol]
